OCC1(O)OC[C@@H](O)[C@@H](O)[C@H]1O (some centres undefined)
solubility (mole fraction)
Conditions	283.15 K	288.15 K	293.15 K	298.15 K	303.15 K	308.15 K	313.15 K	318.15 K	323.15 K
in 2-butanone	0.000516	0.000587	0.000946	0.00144	0.00198	0.00264	0.0033	0.00464	0.00552
in acetone	0.000606	0.000752	0.00104	0.00158	0.00219	0.00299	0.00376	0.0049	–
in acetonitrile	0.000226	0.000283	0.000367	0.00047	0.000627	0.000861	0.00109	0.00139	0.00176
in ethanol	0.00369	0.00446	0.00588	0.00746	0.00899	0.0116	0.0147	0.018	0.0222
in ethyl acetate	0.00077	0.000993	0.00128	0.00173	0.00217	0.00257	0.00327	0.00379	0.00449
in ethyl formate	0.000243	0.000356	0.000493	0.000697	0.00109	0.00151	0.00193	0.00275	0.00346
in isopropanol	0.00147	0.00193	0.00254	0.00368	0.00507	0.00673	0.00893	0.0112	0.0143
in methanol	0.0162	0.0178	0.0212	0.0273	0.0356	0.0512	0.0705	0.0895	0.116
in methyl acetate	0.000227	0.000298	0.000389	0.000619	0.000851	0.00105	0.00139	0.00187	0.00231
in n-butanol	0.00111	0.00125	0.0018	0.0024	0.00329	0.00456	0.00579	0.00747	0.00952
in n-butyl acetate	0.000243	0.000359	0.000443	0.000593	0.000796	0.001	0.00131	0.00165	0.002
in n-hexanol	0.000659	0.000835	0.000961	0.00143	0.00216	0.00301	0.004	0.00509	0.00652
in n-pentanol	0.00133	0.00134	0.0017	0.00202	0.00269	0.00356	0.00448	0.00561	0.00721
in n-propanol	0.0015	0.00191	0.00234	0.00335	0.00446	0.00567	0.00751	0.00956	0.0121
in sec-butanol	0.001	0.00178	0.00238	0.00324	0.0045	0.00617	0.0079	0.0105	0.0135
